viability, T/C data for 15 compounds are collected here from PubChem BioAssay AID2060508 (Molecular Pharmacology Branch, DTP, NCI, 2025).

“And” between values parts separate entries of the source, which are not always exact repeats. Identical values can stand only once.
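Further: spheroids exposed to compounds for seven days.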

The first test deals with 454973-116-R2-J3-PDC spheroids, viability, % test/control. Briefly: Anticancer human tumor 454973-116-R2-J3-PDC patient-derived pancreatic carcinoma cell line growth inhibition [GQUAD]. The note with it: compound 0.316 µM; stronger effect = lower value; spheroids with HUVEC and MSC. An excerpt:
DNA G-quadruplex Stabilizer Agents in Combinations in Complex Spheroids
A high-throughput screen of multi-cell type tumor spheroids was designed to identify active combinations of DNA G-quadruplex stabilizer agents and targeted small molecules. Complex spheroids include a stromal component modeled by human endothelial cells (HUVEC) and fibroblasts modeled by human mesenchymal stem cells (MSCs). The concentration ranges selected for each drug and investigational agent were based upon clinically achievable concentrations if the clinical Cmax of the agent was known.
Compounds. The drugs and investigational agents: pidnarulex (CX-5461; NSC782164), APTO-253 (NSC789042), BRACO-19 (NSC847499), peposertib (NSC802822), ceralasertib (NSC780249), elimusertib (NSC800525), camonsertib (NSC841442), AZD-1390 (NSC803789), olaparib (NSC753686), talazoparib (NSC767125), ART-558 (NSC835418), sotorasib (NSC818433), MRTX-1133 (NSC836407), SN-38 (NSC673596), topotecan (NSC609699), etoposide (NSC141540), doxorubicin (NSC123127), gemcitabine (NSC613327), 5-fluorouracil (NSC19893), paclitaxel (NSC125973), vemurafenib (NSC761431), panobinostat (NSC761190), R-306465 (JNJ-16241199; NSC773264), adavosertib (NSC754352), TP-3654 (NSC805149), carboplatin (NSC241240), KSQ-4279 (NSC840948), and staurosporine (NSC755774) were obtained from the National Cancer Institute (NCI) Developmental Therapeutics Program Chemical Repository (34). The FDA-approved anticancer drug set is available from the NCI Developmental Therapeutics Program. […] The stock solutions were prepared in dimethyl sulfoxide (DMSO, Sigma-Aldrich, St. Louis, MO, cat. D2650) at 800-fold the tested concentration and stored at -70 degrees C prior to their use. All drugs and investigational agents were tested over a range starting from a high concentration at or near the clinical Cmax and decreasing in half-log increments. If the clinical Cmax for an agent had not been determined, the highest concentration tested was 10 microM.
2.3 Cell Culture. All cells were maintained in an incubator at 37 degrees C and 5% CO2 with 95% humidity. The PDC lines were cultured according to standard operating procedures established by the NCI PDMR. All PDCs were thawed and cultured in Matrigel-coated flasks prepared with a working solution of 1X Ham's F-12 nutrient mix, without supplementation (Invitrogen, cat. 11765054), 100 U/mL penicillin-streptomycin (Invitrogen, cat. 15140122), and 2.5% Matrigel (Corning Inc., cat. 354248) for the first three passages. The 857933-349-R-J2-PDC line was cultured in 6C/Colon 1B media, which includes advanced DMEM/F-12 (Thermo Fisher Scientific, cat. 12634028), 10 mM HEPES (Thermo Fisher Scientific, cat. 15630080), 1X GlutaMAX supplement (Thermo Fisher Scientific, cat. 35050061), 0.1 mg/mL primocin (InvivoGen, cat. ant-pm-2), 10% defined fetal bovine serum, heat inactivated (HyClone Laboratories Inc., cat. SH30070.03HI), 50% L-WRN conditioned media (ATCC, cat. CRL-3276), 1.25 mM N-Acetyl-L-cysteine (Sigma-Aldrich, cat. A9165), 10 mM nicotinamide (Sigma-Aldrich, cat. N0636), 1X B-27 supplement (Thermo Fisher Scientific, cat. 17504044), 1X N-2 supplement (Thermo Fisher Scientific, cat. 17502048), 10 microM Y-27632 dihydrochloride (Tocris Bioscience, cat. 1254), and 50 ng/mL human EGF recombinant protein (Thermo Fisher Scientific, cat. PHG0311). The 485176-168-R4-J1-PDC line was cultured in Panc media, which includes all 6C/Colon 1B media components plus 100 ng/mL human FGF-10 (Thermo Fisher Scientific, cat. 100-26), 500 nM SB-431542 (Selleckchem, cat. S1067), and gastrin (Tocris, cat. 3006).
[…]
As to `Nc1ccn(C2OC(CO)C(O)C2(F)F)c(=O)n1` (stereo not drawn), the viability, T/C (as a rule, the result in the treated group divided by that in the control group, in per cent) was 15.3% and 17.1% and 18.8%.

For `O=C(c1cc(Cc2n[nH]c(=O)c3ccccc23)ccc1F)N1CCN(C(=O)C2CC2)CC1`, the viability, T/C is 91.1% and 97.2% and 91.3%.

As to `O=c1[nH]cc(F)c(=O)[nH]1`, the viability, T/C was 105% and 95.1% and 107%.

The same test, now with this note: compound 1 µM; stronger effect = lower value; spheroids with HUVEC and MSC.
Take `C=CC(=O)N1CCN(c2nc(=O)n(-c3c(C)ccnc3C(C)C)c3nc(-c4c(O)cccc4F)c(F)cc23)C(C)C1` (stereo not drawn): the viability, T/C was 111% and 116% and 110%.

Consider `CC(C)n1c(=O)n(C)c2cnc3cc(F)c(-c4ccc(OCCCN5CCCCC5)nc4)cc3c21`, for which the viability, T/C was 101% and 92.8% and 92.4%.

For `CC1COCCN1c1cc(-c2ccnn2C)c2ccnc(-c3ccn[nH]3)c2n1` (stereo not drawn), the viability, T/C was 26.3% and 24% and 18.6%.

On to `CC1COCCN1c1cc(C2(O)CC3CCC(C2)O3)c2cnn(-c3ccn[nH]3)c2n1` (stereo not drawn), for which the viability, T/C was 18% and 21.5% and 23.2%.

`CC1COCCN1c1cc(C2(S(C)(=N)=O)CC2)nc(-c2ccnc3[nH]ccc23)n1` (stereo not drawn): the viability, T/C was 100% and 96.2% and 104%.

On to `CN(C)c1ccc(Nc2c3ccc(NC(=O)CCN4CCCC4)cc3nc3cc(NC(=O)CCN4CCCC4)ccc23)cc1`, for which the viability, T/C is 98.5% [middle of 12 runs].

With `COc1cc(C2c3cc4c(cc3C(OC3OC5COC(C)OC5C(O)C3O)C3COC(=O)C23)OCO4)cc(OC)c1O` (stereo not drawn), the viability, T/C was 55.2% and 52.1% and 61.5%.

`COc1ccc([C@@H](O)c2cc(-c3ncnc4cc(N5CCOCC5)ccc34)c(F)cc2Cl)nn1`: the viability, T/C is 89% and 93.2% and 84%.

On to `COc1cccc2c1C(=O)c1c(O)c3c(c(O)c1C2=O)CC(O)(C(=O)CO)CC3OC1CC(N)C(O)C(C)O1` (stereo not drawn), for which the viability, T/C is 25.2% and 30.2% and 26.5%.

`Cc1[nH]c2ccc(F)cc2c1-c1nc2c3cccnc3c3ncccc3c2[nH]1`: the viability, T/C is 105% [middle of 12 runs].

On to `Cc1cccc(N(C)C(=O)C2C(O)CCN2c2nc(C)cc(C(F)(F)F)c2C#N)c1` (stereo not drawn), for which the viability, T/C was 102% and 93.6% and 108%.

As for `Cc1cnc(CNC(=O)c2c(=O)c3ccc(N4CCCN(C)CC4)nc3n3c2sc2ccccc23)cn1`, the viability, T/C is 72.2% [middle of 12 runs].

In the case of `Nc1ccn(C2OC(CO)C(O)C2(F)F)c(=O)n1` (stereo not drawn), the viability, T/C is 16.3% and 16.7% and 16.6%.

Consider `O=C(c1cc(Cc2n[nH]c(=O)c3ccccc23)ccc1F)N1CCN(C(=O)C2CC2)CC1`, for which the viability, T/C is 96.4% and 96.3% and 90.3%.

Regarding `O=c1[nH]cc(F)c(=O)[nH]1`, the viability, T/C is 76% and 70.2% and 86.5%.

The test is the same for the next values; noted with them: compound 3.16 µM; stronger effect = lower value; spheroids with HUVEC and MSC.
Consider `C=CC(=O)N1CCN(c2nc(=O)n(-c3c(C)ccnc3C(C)C)c3nc(-c4c(O)cccc4F)c(F)cc23)C(C)C1` (stereo not drawn), for which the viability, T/C is 111% and 110% and 115%.

In the case of `CC(C)n1c(=O)n(C)c2cnc3cc(F)c(-c4ccc(OCCCN5CCCCC5)nc4)cc3c21`, the viability, T/C is 91.9% and 89.9% and 91.4%.

With `CC1COCCN1c1cc(-c2ccnn2C)c2ccnc(-c3ccn[nH]3)c2n1` (stereo not drawn), the viability, T/C was 26.5% and 25.6% and 19.4%.

For the compound `CC1COCCN1c1cc(C2(O)CC3CCC(C2)O3)c2cnn(-c3ccn[nH]3)c2n1` (stereo not drawn), the viability, T/C was 17.8% and 23.5% and 22.9%.

For `CC1COCCN1c1cc(C2(S(C)(=N)=O)CC2)nc(-c2ccnc3[nH]ccc23)n1` (stereo not drawn), the viability, T/C was 67.5% and 72.8% and 72.2%.

`CN(C)c1ccc(Nc2c3ccc(NC(=O)CCN4CCCC4)cc3nc3cc(NC(=O)CCN4CCCC4)ccc23)cc1`: the viability, T/C was 94.8% [middle of 12 runs].

With `COc1cc(C2c3cc4c(cc3C(OC3OC5COC(C)OC5C(O)C3O)C3COC(=O)C23)OCO4)cc(OC)c1O` (stereo not drawn), the viability, T/C is 23.5% and 22.8% and 25.1%.

Consider `COc1ccc([C@@H](O)c2cc(-c3ncnc4cc(N5CCOCC5)ccc34)c(F)cc2Cl)nn1`, for which the viability, T/C is 76.2% and 71.4% and 65%.

`COc1cccc2c1C(=O)c1c(O)c3c(c(O)c1C2=O)CC(O)(C(=O)CO)CC3OC1CC(N)C(O)C(C)O1` (stereo not drawn): the viability, T/C is 11.2% and 23.5% and 13%.

For the compound `Cc1[nH]c2ccc(F)cc2c1-c1nc2c3cccnc3c3ncccc3c2[nH]1`, the viability, T/C was 100% [middle of 12 runs].

With `Cc1cccc(N(C)C(=O)C2C(O)CCN2c2nc(C)cc(C(F)(F)F)c2C#N)c1` (stereo not drawn), the viability, T/C was 110% and 108% and 113%.

As to `Cc1cnc(CNC(=O)c2c(=O)c3ccc(N4CCCN(C)CC4)nc3n3c2sc2ccccc23)cn1`, the viability, T/C was 64.6% [middle of 12 runs].

`Nc1ccn(C2OC(CO)C(O)C2(F)F)c(=O)n1` (stereo not drawn): the viability, T/C was 17.3% and 14% and 17.2%.

For `O=C(c1cc(Cc2n[nH]c(=O)c3ccccc23)ccc1F)N1CCN(C(=O)C2CC2)CC1`, the viability, T/C was 83.8% and 88.4% and 87.7%.

Consider `O=c1[nH]cc(F)c(=O)[nH]1`, for which the viability, T/C is 32.9% and 34.6% and 35.7%.
